System: Erysiphe graminis f.sp. hordei
Assay type: in vivo
Details: 200 ppm

CC#CC(C)(C)NC(=O)C(COC)Oc1cc(Cl)cc(Cl)c1 (stereo not shown) [4(1), 2-(3,5-dichlorophenoxy)-3-methoxy-N-(4-methylpent-2-yn-4-yl)propionamide]
control of fungal infection: at least 70%
